Read-outs that look alike come from different tables or passages of the source.

The target of data set [1] is T1, ERBB4/HER4 (Homo sapiens, UniProt Q15303).
T1 construct: purchased Reaction Biology Corp
Put plainly: Kinase inhibition assay (HotSpot), ERBB4/HER4. Type of data set: biochemical. The conditions noted are these: 10 μM ATP, 10-dose IC50 mode; read-out: Compound IC50 (M) ERBB4/HER4.

In data set [2] the test system is interleukin-1α (IL1α)-mediated cytokine production by the lung adenocarcinoma cell line A549. Put plainly: Cellular assay (A549) against IL1α-mediated cytokine production. In kind it is cell-based, human. The conditions noted are these: serum starved A549 cells, compound 30 min prior to IL-1α (1 ng/ml) for 24 h, ELISA. The procedure:
Cellular Assay (A549 Human Lung Adenocarcinoma Cells) Assessing Effect of ZH3-138, ZH3-126 and PF670462 Against IL1α-Mediated Cytokine Production
The anti-inflammatory potential of selected compounds was examined by establishing the effects on interleukin-1α (IL1α)-mediated cytokine production by the lung adenocarcinoma cell line A549. Serum starved A549 cells were treated with various concentrations of the relevant CK1δ inhibitor (PF670462, ZH3-126 and ZH3-138) 30 min prior to IL-1α (1 ng/ml) for 24 h. Supernatant was collected and concentration of IL-6, IL-8 and GM-CSF was detected by ELISA. Data are presented as mean±SEM across three replicates in FIG. 7 (A: IL-6; B: IL-8 and C: GM-CSF).
(In an ELISA, binding on a coated surface is turned into a signal by an enzyme label.)

Data set [3] has as its target T2, human recombinant Casein kinase 18 (CK1δ) (Homo sapiens, UniProt P48730).
T2 construct: purchased Reaction Biology Corp
Put plainly: Kinase inhibition assay (HotSpot, Reaction Biology Corp), CK1δ. Type of data set: biochemical. To be noted: 10 μM ATP, 10-dose IC50 mode.

Data set [4] in a line: In vitro metabolic stability, human liver microsomes. Type of data set: in vitro ADME. On the procedure: Human Microsomal Stability of Compounds of the Invention
In Vitro Metabolic Stability
Incubation: The metabolic stability assay was performed by incubating each test compound in human liver microsomes at 37° C. and a protein concentration of 0.4 mg/mL. The metabolic reaction was initiated by the addition of an NADPH-regenerating system and quenched at various time points over a 60 minute incubation period by the addition of acetonitrile containing diazepam as internal standard. Control samples (containing no NADPH) were included (and quenched at 2, 30 and 60 minutes) to monitor for potential degradation in the absence of cofactor. The human liver microsomes used in this experiment were supplied by XenoTech, lot #1410230. Microsomal incubations were performed at a substrate concentration of 1 μM. Data analysis: Species scaling factors from Ring et al. (2011) JPharmSci, 100:4090-4110 were used to convert the in vitro CLint (μL/min/mg) to an in vivo CLint(mL/min/kg). Hepatic blood clearance and the corresponding hepatic extraction ratio (EH) were calculated using the well stirred model of hepatic extraction in each species, according to the “in vitro T1/2” approach described in Obach (1999) DrugMetab. Dispos. 27:1350-1359. The EH was then used to classify compounds as low(<0.3), intermediate (0.3-0.7), high (0.7-0.95) or very high (>0.95) extraction compounds. Predicted in vivo clearance values have not been corrected for microsomal or plasma protein binding. Species scaling calculations are based on two assumptions: 1) NADPH-dependent oxidative metabolism predominates over other metabolic routes (i.e. direct conjugative metabolism, reduction, hydrolysis, etc.), and; 2) rates of metabolism and enzyme activities in vitro are truly reflective of those that exist in vivo. If significant non-NADPH-mediated degradation is observed in microsome control samples, then assumption (1) is invalid and predicted clearance parameters are therefore not reported.
(Liver microsomes are a subcellular fraction often used to study metabolism.)

Data set [5] has as its system TGF-β-induced IL-11 in primary human parenchymal fibroblast cells (pFbs). Put plainly: Human parenchymal fibroblast cell assay, TGF-β-induced IL-11 (ELISA). Type of data set: cell-based. The conditions noted are these: compounds 0.1-10 μM 30 min prior to TGF-β1, 16-24 hours, 4.00* is assigned to compounds that failed to cause 50% or more inhibition at 10 µM, read-out: pIC50 IL-11 suppression (converted). The procedure:
Human Parenchymal Fibroblast Cell Assay
Primary human parenchymal fibroblast cells (pFbs) were cultured from parenchyma of lung resection specimens and from non-transplanted lungs of donors without chronic respiratory disease. pFbs were passaged in Dulbecco's Modified Eagle's Media (DMEM) containing 10% (v/v) heat-inactivated fetal calf serum (FCS), 15 mM HEPES, 0.2% (v/v) sodium bicarbonate, 2 mM L-glutamine, 1% (v/v) non-essential amino acids, 1% (v/v) sodium pyruvate, 2.5 μg/mL amphotericin, 5 IU/mL penicillin and 50 μg/mL streptomycin. In some experiments the human lung fibroblast cell line, MRC5 (sourced from ATTC) was used as indicated. The MRC5 line was maintained under the same conditions as described for the pFb.
Prior to experimentation, pFb were incubated in serum-free DMEM containing 0.25% bovine serum albumin (BSA) and insulin-transferrin-selenium-containing supplement (Monomed A; CSL, Parkville, Melbourne, Australia). The cells were incubated with small molecular CK1δ inhibitors (0.1-10 μM) for 30 min prior to […] TGF-β1 (R&D Systems, Minneapolis, Minn.) and the incubation continued for 16-24 hours prior to harvest of supernatant for detection of immunoreactive IL-11. Stock solutions were made as 10 mM in 100% DMSO and diluted to the required concentration in medium containing 0.1% DMSO (final concentration).
Supernatants were collected for measurement of IL-11 (R&D DuoSet, DY218) by ELISA following the manufacturers' instructions. Generally, capture antibodies were initially diluted to the recommended concentrations using PBS buffer, and then used to coat the wells of 96-well microplates (Greiner, #655061) by adding 50 μL/well and incubated overnight at room temperature. Next day, solutions were discarded and wells were washed 3 times with wash buffer (PBS containing 0.1% (v/v) Tween-20) prior to the addition of 200 μL of blocking solution (PBS containing 1% (v/v) BSA) for 1 hour to block non-specific sites. Plates were then washed 3 times with wash buffer and 50 μL of samples or standards were then added to wells and incubated for 2 hours at room temperature. After the incubation, plates were washed 3 times with wash buffer and 50 μL of detection antibodies were added to wells and incubated for 2 hours at room temperature. Plates were then washed 3 times before adding streptavidin-conjugated horseradish peroxidase (at the recommended concentrations) for 45 min. Plates were then washed 5 times with wash buffer and 100 μL TMB substrate solution (equal parts A and B, BD Biosciences) was added to each well until sufficient signals emerged. The reactions were inactivated by adding 100 μL sulphuric acid (2M H2SO4). The absorbance was measured at 450 nm using the Multiskan Ascent® plate reader. The absorbance of the cytokine standards was fitted to a logistic equation, allowing the concentrations of cytokine in samples to be determined.
PIC50 values (the negative log of the concentration suppressing IL-11 level by 50%) for inhibition of TGF-β-induced IL-11 were interpolated from the linear regression of log concentration small molecule versus IL-11 level (Table 4 and FIG. 2).

For data set [6], the target named is T3, MINK/MINK1 (Homo sapiens, UniProt Q8N4C8).
T3 construct: purchased Reaction Biology Corp
Put plainly: Kinase inhibition assay (HotSpot), MINK/MINK1. In kind it is biochemical. The conditions noted are these: 10 μM ATP, 10-dose IC50 mode; read-out: Compound IC50 (M) MINK/MINK1.

T2 sequence (P48730 whole entry): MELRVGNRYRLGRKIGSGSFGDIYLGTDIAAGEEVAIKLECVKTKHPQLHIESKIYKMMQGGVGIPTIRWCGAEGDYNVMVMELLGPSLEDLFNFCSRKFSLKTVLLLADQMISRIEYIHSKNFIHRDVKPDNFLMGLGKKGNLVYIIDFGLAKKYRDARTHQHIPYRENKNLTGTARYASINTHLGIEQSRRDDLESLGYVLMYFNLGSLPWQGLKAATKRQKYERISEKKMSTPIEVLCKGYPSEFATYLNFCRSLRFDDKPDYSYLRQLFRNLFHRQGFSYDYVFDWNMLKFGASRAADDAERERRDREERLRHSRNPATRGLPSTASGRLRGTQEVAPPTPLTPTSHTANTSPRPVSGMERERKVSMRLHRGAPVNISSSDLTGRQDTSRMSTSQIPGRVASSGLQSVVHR
T3 sequence (Q8N4C8 whole entry): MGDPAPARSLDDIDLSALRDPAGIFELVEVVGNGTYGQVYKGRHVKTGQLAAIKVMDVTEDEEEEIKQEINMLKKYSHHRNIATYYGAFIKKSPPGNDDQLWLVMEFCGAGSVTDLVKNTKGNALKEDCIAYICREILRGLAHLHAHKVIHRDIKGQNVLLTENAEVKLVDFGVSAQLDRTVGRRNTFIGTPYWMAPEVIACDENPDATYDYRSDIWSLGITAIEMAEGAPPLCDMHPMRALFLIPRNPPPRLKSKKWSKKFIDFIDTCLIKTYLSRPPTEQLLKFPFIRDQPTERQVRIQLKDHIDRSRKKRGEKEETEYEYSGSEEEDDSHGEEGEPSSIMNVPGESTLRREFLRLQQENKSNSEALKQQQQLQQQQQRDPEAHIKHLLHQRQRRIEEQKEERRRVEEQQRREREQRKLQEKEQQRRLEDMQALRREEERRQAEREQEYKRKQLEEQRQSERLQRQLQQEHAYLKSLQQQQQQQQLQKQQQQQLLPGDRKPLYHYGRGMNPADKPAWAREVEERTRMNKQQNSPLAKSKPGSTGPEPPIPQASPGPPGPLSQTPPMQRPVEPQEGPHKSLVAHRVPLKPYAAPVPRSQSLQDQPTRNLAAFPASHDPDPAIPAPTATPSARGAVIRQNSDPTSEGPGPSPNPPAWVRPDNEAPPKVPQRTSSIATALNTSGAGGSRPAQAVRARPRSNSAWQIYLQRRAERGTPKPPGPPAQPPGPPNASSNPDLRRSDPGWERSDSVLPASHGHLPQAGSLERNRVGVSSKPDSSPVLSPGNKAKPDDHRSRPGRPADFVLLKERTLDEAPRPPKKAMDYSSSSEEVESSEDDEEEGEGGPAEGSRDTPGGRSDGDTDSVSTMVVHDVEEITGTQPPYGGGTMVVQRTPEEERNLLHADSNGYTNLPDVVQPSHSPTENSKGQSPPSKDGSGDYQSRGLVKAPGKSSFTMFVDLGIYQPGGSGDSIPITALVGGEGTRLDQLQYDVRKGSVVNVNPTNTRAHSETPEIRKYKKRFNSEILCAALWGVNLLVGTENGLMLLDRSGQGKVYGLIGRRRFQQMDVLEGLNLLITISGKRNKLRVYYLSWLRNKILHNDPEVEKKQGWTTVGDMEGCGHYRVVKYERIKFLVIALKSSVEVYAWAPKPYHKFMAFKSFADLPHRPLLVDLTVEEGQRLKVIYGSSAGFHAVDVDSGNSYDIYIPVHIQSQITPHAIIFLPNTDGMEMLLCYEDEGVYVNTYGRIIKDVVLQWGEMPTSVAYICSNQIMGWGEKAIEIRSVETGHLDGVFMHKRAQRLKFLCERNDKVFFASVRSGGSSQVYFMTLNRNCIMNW
T1 sequence (Q15303 26-1308): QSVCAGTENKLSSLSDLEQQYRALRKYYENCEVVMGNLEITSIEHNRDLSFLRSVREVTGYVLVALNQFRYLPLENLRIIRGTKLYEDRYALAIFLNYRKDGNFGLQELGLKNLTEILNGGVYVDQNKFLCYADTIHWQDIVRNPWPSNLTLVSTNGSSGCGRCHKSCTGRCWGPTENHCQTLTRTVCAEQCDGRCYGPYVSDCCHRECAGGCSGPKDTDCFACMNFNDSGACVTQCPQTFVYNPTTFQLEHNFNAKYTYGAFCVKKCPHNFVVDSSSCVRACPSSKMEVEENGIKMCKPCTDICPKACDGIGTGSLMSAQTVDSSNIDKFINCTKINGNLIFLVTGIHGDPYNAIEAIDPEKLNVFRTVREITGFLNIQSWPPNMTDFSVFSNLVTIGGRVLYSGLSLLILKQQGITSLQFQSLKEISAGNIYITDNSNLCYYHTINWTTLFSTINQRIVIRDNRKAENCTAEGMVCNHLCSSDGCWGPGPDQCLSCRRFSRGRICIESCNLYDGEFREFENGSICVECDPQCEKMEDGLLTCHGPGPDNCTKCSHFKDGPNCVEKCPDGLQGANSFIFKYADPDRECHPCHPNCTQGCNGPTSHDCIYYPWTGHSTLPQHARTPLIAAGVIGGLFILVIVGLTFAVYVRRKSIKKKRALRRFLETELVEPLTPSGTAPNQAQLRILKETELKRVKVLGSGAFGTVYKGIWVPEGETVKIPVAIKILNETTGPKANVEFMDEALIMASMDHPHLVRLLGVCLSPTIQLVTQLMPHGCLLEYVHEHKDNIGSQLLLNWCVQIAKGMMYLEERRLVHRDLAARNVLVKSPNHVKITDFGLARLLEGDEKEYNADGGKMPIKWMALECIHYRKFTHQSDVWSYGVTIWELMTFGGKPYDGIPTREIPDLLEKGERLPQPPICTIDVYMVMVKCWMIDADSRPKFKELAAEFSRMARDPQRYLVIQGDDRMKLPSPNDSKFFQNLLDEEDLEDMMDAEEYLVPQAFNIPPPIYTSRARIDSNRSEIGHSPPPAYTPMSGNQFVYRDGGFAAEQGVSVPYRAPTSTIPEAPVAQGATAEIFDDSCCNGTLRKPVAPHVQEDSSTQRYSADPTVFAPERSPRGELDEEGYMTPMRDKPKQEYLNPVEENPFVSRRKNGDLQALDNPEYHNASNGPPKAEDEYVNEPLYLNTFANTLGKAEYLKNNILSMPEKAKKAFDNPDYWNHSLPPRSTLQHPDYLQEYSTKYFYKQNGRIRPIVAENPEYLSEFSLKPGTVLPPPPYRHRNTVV

As to `CCn1cnc(-c2ccc(F)cc2)c1-c1ccnc(NCCO)n1` [ZH3-126, 2-((4-(1-Ethyl-4-(4-fluorophenyl)-1H-imidazol-5-yl)pyrimidin-2-yl)amino)ethan-1-ol], the IC50 was 9.52e-06 M in data set [1]; 6.38e-10 M in data set [3] (read-out: Compound IC50 (M) CK1δ); 6.46e-10 M in data set [3] (casein kinase 1δ, read-out: pIC50 (converted)); 1860 nM in data set [5]; 1.99e-07 M in data set [6]. In addition, in data set [2], the “supernatant concentrations of inflammatory biomarkers (IL-6, IL-8, GM-CSF)” value is reported as “ability to reduce supernatant concentrations of other inflammatory biomarkers”. In data set [4] (human liver microsomes), the “Predicted EH (hepatic extraction ratio)” value is recorded as 0.22. For the same molecule, the microsomal CLint at 1 μM in data set [4] (human liver microsomes, 1 μM) is 7 µL/min/mg. The half-life at 1 μM in data set [4] (human liver microsomes, 1 μM, 0.4 mg/mL protein, 37° C.) was found to be 4.03 h. In data set [4] (scaled from human liver microsomes, well stirred model), the “Predicted CLblood” value was 5 mL/min/kg. Besides, in data set [4] (scaled from human liver microsomes, read-out: Predicted CLint, in vivo), the CLint scaled at 1 μM was 6 mL/min/kg.

Usually microsomal CLint stands for the rate of metabolic loss divided by the concentration. Higher therefore signals faster metabolism. In general, half-life refers to the time in which the quantity being followed falls by half.

(Values after patent US20220281846A1, “COMPOUNDS AND COMPOSITIONS FOR THE TREATMENT OF RESPIRATORY DISEASES” (THE UNIVERSITY OF MELBOURNE, priority 2018, published 2022).)
